Measurements reported in publication PMC3433420 (PLoS ONE, 2012).
Residues, ends and D or L forms follow the SMILES beside them.

How the values were obtained:
RASA1-N SH2 domain = target: T1, RASA1-N SH2 domain (Homo sapiens, UniProt P20936); test: FP saturation binding assay
T1 sequence (P20936 181-272 limits assumed): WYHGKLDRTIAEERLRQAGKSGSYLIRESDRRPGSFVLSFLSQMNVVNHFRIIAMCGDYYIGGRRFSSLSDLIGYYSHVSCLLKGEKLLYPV

[1] = target: T2, PLCG1-NC tandem SH2 domains (Homo sapiens, UniProt P19174); test: FP saturation binding assay; conditions: high-confidence ErbB interactions
T2 construct: the tandem protein was included in our analysis with all internal amino acids linking the domains; 6X His; thioredoxin; made in house; host or cells: E. coli BL21(DE3)pLysS
T2 sequence (P19174 550-756 limits assumed): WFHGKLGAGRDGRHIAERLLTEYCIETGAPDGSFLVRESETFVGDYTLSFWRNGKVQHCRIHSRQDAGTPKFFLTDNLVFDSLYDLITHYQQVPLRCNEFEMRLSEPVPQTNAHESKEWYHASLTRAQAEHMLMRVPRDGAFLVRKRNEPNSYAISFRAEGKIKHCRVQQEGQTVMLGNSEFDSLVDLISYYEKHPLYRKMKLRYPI

[2] = Protein PLCG1-NC, FP saturation binding, mean over replicate hits
[3] = protein PLCG1-NC, FP, mean of replicate hits

| Compound | Kd (RASA1-N SH2 domain) [µM] | Kd [1, 2] [µM] | Kd [1, 3] [µM] | Kd ([1]; protein PLCG1-NC, mean of replicate hits) [µM] |
| --- | --- | --- | --- | --- |
| CC(C)C[C@H](NC(=O)[C@H](Cc1ccc(OP(=O)(O)O)cc1)NC(=O)[C@H](CCC(=O)O)NC(=O)[C@H](CCC(=O)O)NC(=O)[C@H](C)NC(=O)[C@@H](N)CC(=O)O)C(=O)N[C@H](C(=O)N1CCC[C@H]1C(=O)N[C@@H](CCC(N)=O)C(=O)N[C@@H](CCC(N)=O)C(=O)NCC(=O)N[C@@H](Cc1ccccc1)C(=O)N[C@@H](CC(=O)O)C(=O)O)C(C)C [ErbB2 1023 13-mer] (HELM PEPTIDE1{D.A.E.E.[O=C([C@H](Cc1ccc(OP(=O)(O)O)cc1)N[*:1])[*:2]].L.V.P.Q.Q.G.F.D}$$$$V2.0) | 5.49 | 1.3 |  |  |
| CC(C)[C@H](NC(=O)[C@H](CC(=O)O)NC(=O)[C@@H]1CCCN1C(=O)[C@H](CCC(N)=O)NC(=O)[C@H](CC(N)=O)NC(=O)[C@@H](NC(=O)[C@H](Cc1ccc(OP(=O)(O)O)cc1)NC(=O)[C@H](CCC(=O)O)NC(=O)[C@@H]1CCCN1C(=O)[C@H](CCC(N)=O)NC(=O)[C@@H]1CCCN1)C(C)C)C(=O)N[C@@H](CCCNC(=N)N)C(=O)N[C@@H](CC(=O)O)C(=O)O [ErbB2 1139 13-mer] (HELM PEPTIDE1{P.Q.P.E.[O=C([C@H](Cc1ccc(OP(=O)(O)O)cc1)N[*:1])[*:2]].V.N.Q.P.D.V.R.D}$$$$V2.0) |  | 3.38 |  |  |
| CC(C)C[C@H](NC(=O)[C@H](CC(N)=O)NC(=O)[C@@H](N)CC(=O)O)C(=O)N[C@@H](Cc1ccc(O)cc1)C(=O)N[C@@H](Cc1ccc(OP(=O)(O)O)cc1)C(=O)N[C@@H](Cc1c[nH]c2ccccc12)C(=O)N[C@@H](CC(=O)O)C(=O)N[C@@H](CCC(N)=O)C(=O)N[C@@H](CC(=O)O)C(=O)N1CCC[C@H]1C(=O)N1CCC[C@H]1C(=O)N[C@@H](CCC(=O)O)C(=O)N[C@@H](CC(=O)O)C(=O)O [ErbB2 1222 13-mer] (HELM PEPTIDE1{D.N.L.Y.[O=C([C@H](Cc1ccc(OP(=O)(O)O)cc1)N[*:1])[*:2]].W.D.Q.D.P.P.E.D}$$$$V2.0) | 4.29 | 1.28 |  |  |
| CSCC[C@H](NC(=O)[C@H](Cc1ccc(OP(=O)(O)O)cc1)NC(=O)[C@H](CCC(=O)O)NC(=O)[C@H](Cc1ccc(O)cc1)NC(=O)CNC(=O)[C@@H](N)CC(C)C)C(=O)N[C@@H](CC(=O)O)C(=O)N[C@H](C(=O)NCC(=O)N[C@@H](CO)C(=O)N[C@@H](CC(=O)O)C(=O)N[C@@H](CC(C)C)C(=O)N[C@@H](CC(=O)O)C(=O)O)C(C)C [ErbB3 1224 13-mer] (HELM PEPTIDE1{L.G.Y.E.[O=C([C@H](Cc1ccc(OP(=O)(O)O)cc1)N[*:1])[*:2]].M.D.V.G.S.D.L.D}$$$$V2.0) | 1.24 |  | 4.22 |  |
| CSCC[C@H](NC(=O)[C@H](CCC(=O)O)NC(=O)[C@H](CCC(=O)O)NC(=O)[C@H](Cc1ccc(OP(=O)(O)O)cc1)NC(=O)CNC(=O)[C@H](CCC(N)=O)NC(=O)[C@H](CCC(=O)O)NC(=O)[C@@H](N)CO)C(=O)N[C@@H](CCCNC(=N)N)C(=O)N[C@@H](C)C(=O)N[C@@H](Cc1ccccc1)C(=O)N[C@@H](CCC(N)=O)C(=O)N[C@@H](CC(=O)O)C(=O)O [ErbB3 1289 13-mer] (HELM PEPTIDE1{S.E.Q.G.[O=C([C@H](Cc1ccc(OP(=O)(O)O)cc1)N[*:1])[*:2]].E.E.M.R.A.F.Q.D}$$$$V2.0) | 8.83 |  | 6.14 |  |
| CSCC[C@H](NC(=O)[C@H](Cc1ccc(OP(=O)(O)O)cc1)NC(=O)CNC(=O)[C@H](CCC(=O)O)NC(=O)[C@H](CCC(=O)O)NC(=O)[C@H](CC(=O)O)NC(=O)[C@H](CC(C)C)NC(=O)[C@H](CCC(=O)O)NC(=O)CNC(=O)[C@H](CCCNC(=N)N)NC(=O)[C@@H]1CCCN1)C(=O)N[C@H](C(=O)N1CCC[C@H]1C(=O)N[C@@H](CCSC)C(=O)N[C@@H](CCCNC(=N)N)C(=O)N[C@@H](CC(=O)O)C(=O)N[C@@H](CCCCN)C(=O)N[C@@H](CC(=O)O)C(=O)O)[C@@H](C)O [ErbB4 1150 18-mer] (HELM PEPTIDE1{P.R.G.E.L.D.E.E.G.[O=C([C@H](Cc1ccc(OP(=O)(O)O)cc1)N[*:1])[*:2]].M.T.P.M.R.D.K.D}$$$$V2.0) | 0.61 |  | 2.82 |  |
| CC(C)C[C@H](NC(=O)[C@H](Cc1ccc(OP(=O)(O)O)cc1)NC(=O)[C@H](CC(C)C)NC(=O)[C@@H]1CCCN1C(=O)[C@H](CCC(=O)O)NC(=O)[C@H](CC(N)=O)NC(=O)[C@@H](NC(=O)[C@H](Cc1ccc(O)cc1)NC(=O)[C@H](CCC(=O)O)NC(=O)[C@H](CC(=O)O)NC(=O)[C@@H](N)CCC(=O)O)C(C)C)C(=O)N[C@@H](CC(N)=O)C(=O)N[C@H](C(=O)N[C@@H](Cc1ccccc1)C(=O)N[C@@H](C)C(=O)N[C@@H](CC(N)=O)C(=O)N[C@H](C(=O)N[C@@H](CC(=O)O)C(=O)O)[C@@H](C)O)[C@@H](C)O [ErbB4 1208 18-mer] (HELM PEPTIDE1{E.D.E.Y.V.N.E.P.L.[O=C([C@H](Cc1ccc(OP(=O)(O)O)cc1)N[*:1])[*:2]].L.N.T.F.A.N.T.D}$$$$V2.0) | 6.4 |  |  | 0.97 |
